Molecules are shown by their SMILES. Converted amounts (≈) assume the structure as drawn. Counter-ions that a name gives are not always drawn. Like-named read-outs stand apart in the source and are kept apart here.

For 3 molecules, MIC and ED50 results are on record in patent publication US5438052A, “Cephalosporin derivatives” (Hoffmann-La Roche Inc., priority 1991, dated 1995).

One assay relates to C. freundii 902. Nature of the assay: Minimum inhibitory concentration in vitro, agar dilution method. In kind it is cell-based. The settings on record: Citrobacter freundii. The source says:
(§1) 1. Minimum Inhibitory Concentration in vitro
(§2) The activities ascertained, minimum inhibitory concentration (MIC) in μg/ml, are compiled in Table 1 hereinafter: […]

Another assay relates to E. cloacae 908R. The description is as above. In kind it is cell-based. To be noted: Enterobacter cloacae.
From the text: as §1, §2

The next assay has as its system E. cloacae 908SSi. Described as above. In kind it is cell-based. The settings on record: Enterobacter cloacae.
From the text: as §1, §2

For another assay, the system named is E. cloacae P99. The description is as above. In kind it is cell-based. The settings on record: Enterobacter cloacae.
From the text: as §1, §2

Assay [1] concerns E. coli 25922. Described as above. To be noted: Escherichia coli. In kind it is cell-based.
From the text: as §1, §2

The subject of a further assay is K. oxytoca 1082. The description is as above. In kind it is cell-based. The settings on record: Klebsiella oxytoca.
From the text: as §1, §2

The next assay relates to K. pneumoniae 418. The assay is described as above. The settings on record: Klebsiella pneumoniae. In kind it is cell-based.
From the text: as §1, §2

The next assay relates to P. aeruginosa 27853. Described as above. In kind it is cell-based. To be noted: Pseudomonas aeruginosa.
From the text: as §1, §2

Another assay deals with P. aeruginosa 799/61. The assay is described as above. To be noted: Pseudomonas aeruginosa. In kind it is cell-based.
From the text: as §1, §2

A further assay concerns P. aeruginosa 799/WT. The assay is described as above. In kind it is cell-based. The settings on record: Pseudomonas aeruginosa.
From the text: as §1, §2

For the next assay, the system named is P. aeruginosa BA. The description is as above. In kind it is cell-based. The settings on record: Pseudomonas aeruginosa.
From the text: as §1, §2

In another assay the test system is P. aeruginosa MK1184. Described as above. In kind it is cell-based. The settings on record: Pseudomonas aeruginosa.
From the text: as §1, §2

For the next assay, the system named is P. mirabilis 2117. The assay is described as above. In kind it is cell-based. To be noted: Proteus mirabilis.
From the text: as §1, §2

In a further assay the test system is P. vulgaris 1028. The assay is described as above. In kind it is cell-based. To be noted: Proteus vulgaris.
From the text: as §1, §2

The next assay concerns S. aureus 6538. The assay is described as above. In kind it is cell-based. The settings on record: Staphylococcus aureus.
From the text: as §1, §2

The next assay has as its system S. marcescens 69438. The assay is described as above. In kind it is cell-based. The settings on record: Serratia marcescens.
From the text: as §1, §2

The subject of another assay is S. pyogenes 15. Described as above. In kind it is cell-based. The settings on record: Streptococcus pyogenes.
From the text: as §1, §2

Assay [2] has as its system E. coli 25922. The assay is described as follows: Experimental systemic septicaemia in the mouse. In kind it is in vivo. The settings on record: 96 h. The procedure, abridged:
(§3)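 Albino mice (16-20 g) infected i.p. with overnight culture at about 5-100× the 48 h LD50; groups of 5. Compounds given s.c. in 2% Tween 80 at 1 and 3 h post-infection (P. aeruginosa also at 5 h). ED50 (mg/kg s.c.) by Probit from 4-day survival.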

Assay [3] relates to Pseudomonas aeruginosa BA. The assay is described as follows: Experimental systemic septicaemia in the mouse. In kind it is in vivo. The settings on record: sc, 96 h. The procedure, abridged:
as §3

Another assay deals with S. aureus Schoch. Nature of the assay: Experimental systemic septicaemia in the mouse. To be noted: Staphylococcus aureus, sc, 96 h; S. aureus Schoch, albino mice, s.c. 1 and 3 hours after infection, survival after 4 days; read-out: ED50. In kind it is in vivo. The procedure, abridged:
as §3

The subject of the next assay is E. aerogenes CF153. Nature of the assay: Minimum inhibitory concentration in vitro, agar dilution method. In kind it is cell-based. To be noted: Klebsiella aerogenes, CF153.
From the text: as §1, §2

Where [4] appears, read: C. freundii 902, agar dilution, read-out: MIC.
The mark [5] stands for this setting: E. cloacae 908R, agar dilution, read-out: MIC.
[6] abbreviates: E. cloacae 908SSi, agar dilution, read-out: MIC.
[7] abbreviates: E. coli 25922, agar dilution, read-out: MIC.
Where [8] appears, read: K. oxytoca 1082, agar dilution, read-out: MIC.
[9] abbreviates: K. pneumoniae 418, agar dilution, read-out: MIC.
Where [10] appears, read: P. aeruginosa 27853, agar dilution, read-out: MIC.
[11] abbreviates: P. aeruginosa 799/61, agar dilution, read-out: MIC.
The mark [12] stands for this setting: P. aeruginosa 799/WT, agar dilution, read-out: MIC.
Where [13] appears, read: P. aeruginosa BA, agar dilution, read-out: MIC.
Where [14] appears, read: P. aeruginosa MK1184, agar dilution, read-out: MIC.
Where [15] appears, read: P. mirabilis 2117, agar dilution, read-out: MIC.
Where [16] appears, read: P. vulgaris 1028, agar dilution, read-out: MIC.
[17] abbreviates: S. aureus 6538, agar dilution, read-out: MIC.
Setting [18] is: S. marcescens 69438, agar dilution, read-out: MIC.
Setting [19] is: S. pyogenes 15, agar dilution, read-out: MIC.
[20] abbreviates: Escherichia coli, sc, E. coli 25922, albino mice, s.c. 1 and 3 hours after infection, survival after 4 days, read-out: ED50.
The mark [21] stands for this setting: P. aeruginosa BA, albino mice, s.c. 1, 3 and 5 hours after infection, survival after 4 days, read-out: ED50.

For the molecule `Cc1cc(SCC2=C(C(=O)O)N3C(=O)[C@@H](NC(=O)/C(=N\OCc4ccc(O)c(O)c4)c4csc(N)n4)[C@H]3SC2)n2nc(CNS(=O)(=O)c3ccc(O)c(O)c3)nc2n1` [Example 4, (6R,7R)-7-[(Z)-2-(2-amino-4-thiazolyl)-2-[[(3,4-dihydroxybenzyl)oxy]imino]acetamido]-3-[[[2-[(3,4-dihydroxybenzenesulphonamido)methyl]-5-methyl-s-triazolo[1,5-a]pyrimidin-7-yl]thio]methyl]-8-oxo-5-thia-1-azabicyclo[4.2.0]oct-2-ene-2carboxylic acid], the MIC was less than 0.1 µg/mL with C. freundii 902 (setting [4]); 1 µg/mL (≈ 1.15 µM) with E. cloacae 908R (setting [5]); 4 µg/mL (≈ 4.59 µM) in the assay on E. cloacae 908SSi (setting [6]); 32 µg/mL (≈ 36.7 µM) with E. cloacae P99; less than 0.1 µg/mL with E. coli 25922 [1] (setting [7]); 16 µg/mL (≈ 18.4 µM) in the assay on K. oxytoca 1082 (setting [8]). The MIC in the assay with K. pneumoniae 418 (setting [9]) is less than 0.1 µg/mL; in the assay with P. aeruginosa 27853 (setting [10]), 0.5 µg/mL (≈ 0.574 µM); in the assay on P. aeruginosa 799/61 (setting [11]) it was 0.12 µg/mL (≈ 0.138 µM); with P. aeruginosa 799/WT (setting [12]), 0.25 µg/mL (≈ 0.287 µM); in the assay on P. aeruginosa BA (setting [13]), less than 0.1 µg/mL; with P. aeruginosa MK1184 (setting [14]), 0.25 µg/mL (≈ 0.287 µM). In addition, the MIC in the assay on P. mirabilis 2117 (setting [15]) was 0.25 µg/mL (≈ 0.287 µM); with P. vulgaris 1028 (setting [16]) it was 1 µg/mL (≈ 1.15 µM); in the assay with S. aureus 6538 (setting [17]), 4 µg/mL (≈ 4.59 µM); with S. marcescens 69438 (setting [18]), 0.12 µg/mL (≈ 0.138 µM); with S. pyogenes 15 (setting [19]), 0.25 µg/mL (≈ 0.287 µM). Further, the ED50 in the assay on E. coli 25922 [2] (setting [20]) is less than 0.1 mg/kg; in assay [3] (setting [21]), 0.12 mg/kg; in the assay on S. aureus Schoch, 3.1 mg/kg.
For the molecule `Cc1cc(SCC2=C(C(=O)O)N3C(=O)[C@@H](NC(=O)/C(=N\OCc4ccc(O)c(O)c4F)c4csc(N)n4)[C@H]3SC2)n2nc(CNS(=O)(=O)c3ccc(O)c(O)c3)nc2n1` [Example 5, 7-[(Z)-2-(2-amino-4-thiazolyl)-2-[[(2-fluoro-3,4-dihydroxybenzyl)oxy]imino]acetamido]-3-[[[2-[(3,4-dihydroxybenzenesulphonamido)methyl]-5-methyl-s-triazolo[1,5-a]pyrimidin-7-yl]thio]methyl]-8-oxo-5-thia-1-azabicyclo[4.2.0]oct-2-ene-2-carboxylic acid sodium salt (1:1)], the MIC was less than 0.1 µg/mL with C. freundii 902 (setting [4]); 0.25 µg/mL with E. cloacae 908R (setting [5]); 1 µg/mL in the assay with E. cloacae 908SSi (setting [6]); 4 µg/mL in the assay on E. cloacae P99; less than 0.1 µg/mL in the assay with E. coli 25922 [1] (setting [7]); 0.25 µg/mL in the assay with K. oxytoca 1082 (setting [8]). Also, the MIC in the assay with K. pneumoniae 418 (setting [9]) is less than 0.1 µg/mL; with P. aeruginosa 27853 (setting [10]), 0.12 µg/mL; in the assay on P. aeruginosa 799/61 (setting [11]), less than 0.1 µg/mL; in the assay on P. aeruginosa 799/WT (setting [12]) it was less than 0.1 µg/mL; in the assay with P. aeruginosa BA (setting [13]), 0.12 µg/mL; with P. aeruginosa MK1184 (setting [14]) it was less than 0.1 µg/mL. Further, the minimal inhibitory concentration (MIC) in the assay with P. mirabilis 2117 (setting [15]) was 0.25 µg/mL; in the assay with P. vulgaris 1028 (setting [16]), 0.5 µg/mL; in the assay on S. aureus 6538 (setting [17]), 4 µg/mL; in the assay on S. marcescens 69438 (setting [18]), less than 0.1 µg/mL; in the assay on S. pyogenes 15 (setting [19]), 0.5 µg/mL. Besides, the ED50 was less than 0.1 mg/kg in the assay on E. coli 25922 [2] (setting [20]), 0.034 mg/kg in [3] (setting [21]) and 3.1 mg/kg in the assay on S. aureus Schoch.
For `Cc1cc(SCC2=C(C(=O)[O-])N3C(=O)[C@@H](NC(=O)/C(=N\OCc4nc(=O)c(O)c[nH]4)c4csc(N)n4)[C@H]3SC2)n2nc(COC(=O)c3ccc(O)c(O)c3)nc2n1.[Na+]` [Example 6, (6R,7R)-7-[(Z)-2-(2-amino-4-thiazolyl)-2-[[(1,4-dihydro-5-hydroxy-4-oxo-2-pyrimidinyl)methoxy]imino]acetamido]-3-[[[2-[[(3,4-dihydroxybenzoyl)oxy]methyl]-5-methyl-s-triazolo[1,5-a]pyrimidin-7-yl]thio]methyl]-8-oxo-5-thia-1-azabicyclo[4.2.0]oct-2-ene-2-carboxylic acid sodium salt (1:1)], the MIC is less than 0.1 µg/mL with C. freundii 902 (902); less than 0.1 µg/mL in the assay with E. aerogenes CF153; 0.12 µg/mL against E. cloacae 908R (908R); 4 µg/mL in the assay with E. cloacae 908SSi (908SSI); 4 µg/mL with E. cloacae P99; less than 0.1 µg/mL in the assay on E. coli 25922 [1] (25922). Further, the MIC in the assay with K. oxytoca 1082 (1082) was 0.12 µg/mL; in the assay on K. pneumoniae 418 (418) it was less than 0.1 µg/mL; in the assay with P. aeruginosa 27853 (27853) it was less than 0.1 µg/mL; in the assay with P. aeruginosa 799/61 (799/61), less than 0.1 µg/mL; with P. aeruginosa 799/WT (799/WT), less than 0.1 µg/mL; against P. aeruginosa BA, less than 0.1 µg/mL. The MIC against P. aeruginosa MK1184 (MK1184) is less than 0.1 µg/mL; with P. mirabilis 2117 (2117), 0.25 µg/mL; against P. vulgaris 1028 (1028), less than 0.1 µg/mL; against S. aureus 6538 (6538), 16 µg/mL; in the assay on S. marcescens 69438 (69438) it was 0.12 µg/mL; against S. pyogenes 15 (15) it was 2 µg/mL. Moreover, the ED50 is less than 0.2 mg/kg in the assay with E. coli 25922 [2] (Escherichia coli, 25922, sc) and 0.3 mg/kg in assay [3].
